Where two headings read alike, the source gives them in different places. Marks after values point to notes of the source that are not given here.
Columns and labels:
CYP1A2 = CYP1A2 (Homo sapiens (Human), UniProt P05177); experiment: biochemical; assay type: in vitro ADME
Procedure: 1. Test method: human liver microsomes were used to carry out inhibition activity test of the compounds to CYP enzyme. With the system for incubating human liver microsomes in vitro, the content variation of phenacetin, diclofenac, S-mephenytoin, dextromethorphan and midazolam, which were substrates of human liver microsomes CYP1A2, CYP2C9, CYP2C19, CYP2D6, CYP3A4, were measured simultaneously by cocktail probe drug method (which is a disclosed technology), the effects of TSL-0319 under different concentrations on activity of human liver microsomes CYP1A2, CYP2C9, CYP2C19, CYP2D6, CYP3A4 subtypes are evaluated and relevant IC50 was measured.

[1] = Pharmacokinetics experiments in CD-1 mice; assay type: in vivo, mouse; conditions: for concentration at 0.5 h: 0.500 h; for MRT last: read-out: MRT0-last; for concentration at 0.25 h: 0.250 h; for Plasma drug concentration (ng/ml): LLOQ 3 ng/ml
Procedure: Six healthy CD-1 mice of 7-10 weeks old were randomly separated into two groups. 2 mg/kg and 5 mg/kg TSL-0319 were administrated respectively by intravenous injection and by gavage (2 mg/ml for intravenous injection, made into transparent solution with solution of DMSO/PEG400/H2O=20/60/20; 5 mg/ml for gavage; made into transparent solution with solution of PEG400 (Tween80/H2O=40/10/50); fasting for 12 hours but free drinking before administration; blood was taken from the great saphenous vein or submaxillary veins by time points (time points for taking blood of intravenous injection: 0 h, 0.0833 h, 0.250 h, 0.500 h, 1.00 h, 2.00 h, 4.00 h, 8.00 h, 12.00 h and 24.00 h; time points for taking blood of gavage: 0 h, 0.250 h, 0.50 h, 1.00 h, 2.00 h, 4.00 h, 8.00 h, 12.00 h and 24.0 h) before and after administration, lower limit of quantitation, LLOQ was set at 3 ng/ml.

[2] = target: humanized recombinant DPP8 (Homo sapiens (Human), UniProt Q6V1X1); experiment: Drug selectivity experiment in vitro, DPP8; assay type: biochemical
[3] = target: humanized recombinant DPP9 (Homo sapiens (Human), UniProt Q86TI2); experiment: Drug selectivity experiment in vitro, DPP9; assay type: biochemical
normal mice (C57BL/6J) = experiment: Oral glucose tolerance test of normal mice; assay type: in vivo, mouse; parameters: AUC0-120 min: unit not given beside the values
Procedure: (§1) 2. Experimental method: normal mice, obese mice and diabetic mice were used for studying glucose tolerance tests Experimental process of OGTT (Oral Glucose Tolerance Test): fasting for 6 hours before the test begins, 60 min after drug administration, glucose was administrated by gavage (drug concentration 0.6 mg/ml, administration volume 5 ml/kg) (2 g/kg glucose was administrated to diabetic mice; 2 g/kg glucose was administrated to obese mice; and 5 g/kg glucose was administrated to normal mice), blood glucose values at 0 min, 15 min, 30 min, 45 min, 60 min and 120 min are respectively determined after glucose administration, […]

[4] = tested on: obese mice (B6.Cg-Lepob/JNju); experiment: Glucose tolerance test of obese mice; assay type: in vivo, mouse; parameters: AUC0-120 min: unit not given beside the values
Procedure: as §1

hERG potassium channel = hERG potassium channel (Homo sapiens (Human), UniProt Q12809); experiment: hERG toxicity, manual patch clamp in CHO cells stably transfected with hERG; assay type: cell-based
Excerpt: 1. Test method: testing the effect of the compounds on hERG […] in stable CHO cell lines transfected hERG […] by manual patch clamp method, and then calculating IC50 value of the compounds to hERG. Conventional Patch-Clamp was a technology that has been disclosed, was the most important technical means for studying ion channels and was universally recognized as the “gold standard” for ion channel researches and was the most accurate method for measuring ion channel. It was applicable to study the action mechanism of the effect of compound and the ion channel, and also could be used for toxicity evaluation and structure optimization of candidate drugs in the process of new drugs. In cardiomyocytes, human Ether-a-go-go Related Gene (hERG) coded potassium channel mediates a delayed rectification potassium current (IKr), IKr inhibition was the most important mechanism leading to QT interval prolongation by drugs. hERG could be inhibited by compounds of diversified structures, due to its specific molecular structure. […] The effects of compounds on hERG could be tested and relevant IC50 could be determined by conventional patch-clamp, using CHO cell lines that had been stably transfected hERG potassium channel.

[5] = CD-1, mouse, plasma, oral, gavage 5 mg/kg, read-out: Plasma drug concentration
[6] = CD-1, mouse, plasma, po, gavage 5 mg/kg
[7] = CD-1, mouse, plasma, intravenous injection 2 mg/kg
[8] = CD-1, mouse, plasma, intravenous injection 2 mg/kg, read-out: Plasma drug concentration

Sequence of CYP1A2 (P05177 whole entry): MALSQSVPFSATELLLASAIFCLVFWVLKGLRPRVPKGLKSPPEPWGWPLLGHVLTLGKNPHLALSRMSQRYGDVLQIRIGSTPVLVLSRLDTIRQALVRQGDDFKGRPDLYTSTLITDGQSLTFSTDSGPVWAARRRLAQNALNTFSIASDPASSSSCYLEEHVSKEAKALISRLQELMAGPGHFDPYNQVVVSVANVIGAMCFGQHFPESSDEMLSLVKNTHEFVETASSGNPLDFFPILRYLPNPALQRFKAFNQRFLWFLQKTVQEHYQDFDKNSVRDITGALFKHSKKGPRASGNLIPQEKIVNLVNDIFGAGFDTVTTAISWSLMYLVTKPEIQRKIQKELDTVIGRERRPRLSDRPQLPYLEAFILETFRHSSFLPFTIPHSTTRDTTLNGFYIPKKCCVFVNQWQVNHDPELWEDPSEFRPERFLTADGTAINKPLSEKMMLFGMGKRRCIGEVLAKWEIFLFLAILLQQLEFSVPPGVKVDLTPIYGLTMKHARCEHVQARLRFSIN
Sequence of humanized recombinant DPP8 (Q6V1X1 whole entry): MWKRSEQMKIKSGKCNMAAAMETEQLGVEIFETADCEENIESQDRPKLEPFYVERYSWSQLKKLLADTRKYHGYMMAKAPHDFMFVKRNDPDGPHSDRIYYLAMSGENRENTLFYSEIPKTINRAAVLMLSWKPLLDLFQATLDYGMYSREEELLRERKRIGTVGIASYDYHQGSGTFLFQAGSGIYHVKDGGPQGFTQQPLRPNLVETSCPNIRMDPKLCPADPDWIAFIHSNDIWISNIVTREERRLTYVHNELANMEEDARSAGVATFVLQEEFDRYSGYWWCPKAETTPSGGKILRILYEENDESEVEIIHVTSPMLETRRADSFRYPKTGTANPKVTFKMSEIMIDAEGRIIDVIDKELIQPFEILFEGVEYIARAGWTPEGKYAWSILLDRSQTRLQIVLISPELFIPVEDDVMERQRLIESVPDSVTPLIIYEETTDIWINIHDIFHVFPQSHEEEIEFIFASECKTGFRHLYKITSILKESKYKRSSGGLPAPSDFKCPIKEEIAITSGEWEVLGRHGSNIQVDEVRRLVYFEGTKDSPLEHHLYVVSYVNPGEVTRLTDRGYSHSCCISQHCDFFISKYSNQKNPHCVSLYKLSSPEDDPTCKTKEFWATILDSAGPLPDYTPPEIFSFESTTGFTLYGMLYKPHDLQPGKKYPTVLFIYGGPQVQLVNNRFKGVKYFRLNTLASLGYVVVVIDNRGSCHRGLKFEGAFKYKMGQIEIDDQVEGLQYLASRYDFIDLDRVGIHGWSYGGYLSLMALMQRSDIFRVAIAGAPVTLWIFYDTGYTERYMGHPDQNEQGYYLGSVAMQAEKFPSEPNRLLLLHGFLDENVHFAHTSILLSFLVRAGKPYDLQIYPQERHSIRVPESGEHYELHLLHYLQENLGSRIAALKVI
Sequence of humanized recombinant DPP9 (Q86TI2 whole entry): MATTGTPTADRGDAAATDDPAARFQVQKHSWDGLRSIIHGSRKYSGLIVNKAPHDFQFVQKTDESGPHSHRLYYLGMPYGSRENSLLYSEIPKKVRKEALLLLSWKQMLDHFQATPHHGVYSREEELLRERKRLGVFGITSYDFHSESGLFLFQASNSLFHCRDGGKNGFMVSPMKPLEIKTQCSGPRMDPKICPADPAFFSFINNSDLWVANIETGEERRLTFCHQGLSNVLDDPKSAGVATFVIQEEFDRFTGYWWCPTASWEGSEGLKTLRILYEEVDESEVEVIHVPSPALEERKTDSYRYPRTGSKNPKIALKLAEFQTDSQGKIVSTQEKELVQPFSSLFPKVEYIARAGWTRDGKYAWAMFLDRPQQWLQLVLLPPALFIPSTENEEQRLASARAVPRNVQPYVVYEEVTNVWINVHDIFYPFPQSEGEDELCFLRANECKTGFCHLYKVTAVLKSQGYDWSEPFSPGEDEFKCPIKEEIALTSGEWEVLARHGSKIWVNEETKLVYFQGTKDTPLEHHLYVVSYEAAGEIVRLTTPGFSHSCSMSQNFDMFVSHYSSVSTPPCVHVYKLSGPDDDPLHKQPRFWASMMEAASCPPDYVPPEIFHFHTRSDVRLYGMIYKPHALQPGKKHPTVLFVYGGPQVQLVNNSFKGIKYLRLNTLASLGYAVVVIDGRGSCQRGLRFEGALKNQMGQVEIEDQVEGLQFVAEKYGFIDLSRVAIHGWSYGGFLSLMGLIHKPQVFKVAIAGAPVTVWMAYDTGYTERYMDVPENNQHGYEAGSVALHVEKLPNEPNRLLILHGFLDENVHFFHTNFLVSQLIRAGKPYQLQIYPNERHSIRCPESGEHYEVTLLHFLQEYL
Sequence of hERG potassium channel (Q12809 whole entry): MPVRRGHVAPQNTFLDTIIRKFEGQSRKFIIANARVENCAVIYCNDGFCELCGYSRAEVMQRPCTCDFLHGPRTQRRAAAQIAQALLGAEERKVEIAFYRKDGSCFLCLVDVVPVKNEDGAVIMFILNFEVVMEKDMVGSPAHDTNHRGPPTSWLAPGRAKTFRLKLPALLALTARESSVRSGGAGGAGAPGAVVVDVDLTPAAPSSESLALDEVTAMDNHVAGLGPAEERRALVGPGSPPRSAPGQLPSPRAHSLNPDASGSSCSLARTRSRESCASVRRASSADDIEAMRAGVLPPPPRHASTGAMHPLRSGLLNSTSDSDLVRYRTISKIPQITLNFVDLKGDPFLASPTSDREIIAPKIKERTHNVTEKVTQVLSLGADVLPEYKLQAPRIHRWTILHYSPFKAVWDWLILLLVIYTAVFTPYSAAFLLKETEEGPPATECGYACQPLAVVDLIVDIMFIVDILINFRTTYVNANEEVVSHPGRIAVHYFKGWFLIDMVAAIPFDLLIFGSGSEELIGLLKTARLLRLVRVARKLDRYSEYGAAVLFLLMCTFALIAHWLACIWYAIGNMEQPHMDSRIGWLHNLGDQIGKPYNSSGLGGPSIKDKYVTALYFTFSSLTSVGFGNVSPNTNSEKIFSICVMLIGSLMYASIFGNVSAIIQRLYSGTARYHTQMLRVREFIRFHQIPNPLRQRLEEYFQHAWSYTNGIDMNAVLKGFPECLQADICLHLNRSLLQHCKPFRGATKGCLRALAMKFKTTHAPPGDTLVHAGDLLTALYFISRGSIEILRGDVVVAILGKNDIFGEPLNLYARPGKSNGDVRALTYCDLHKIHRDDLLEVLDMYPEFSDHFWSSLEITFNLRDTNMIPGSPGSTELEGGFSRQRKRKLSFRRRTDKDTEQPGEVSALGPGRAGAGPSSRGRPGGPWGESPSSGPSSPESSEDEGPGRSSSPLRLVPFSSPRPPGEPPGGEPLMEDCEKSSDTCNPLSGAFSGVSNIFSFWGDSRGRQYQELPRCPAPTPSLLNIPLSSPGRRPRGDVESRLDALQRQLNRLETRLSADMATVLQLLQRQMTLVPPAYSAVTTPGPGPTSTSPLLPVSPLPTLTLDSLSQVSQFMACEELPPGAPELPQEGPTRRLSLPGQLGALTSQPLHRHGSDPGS

For CC#CCn1c(N2CCC[C@@H](N)C2)nc2c1c(=O)n(Cc1nccnc1C#N)c(=O)n2C [Compound I-3, 1-[(3-cyano-pyrazine-2-yl)methyl]-3-methyl-7-(2-butyne-1-yl)-8-[(R)-3-amino-piperidine-1-yl]-xanthine], which IC50 (CYP1A2) is on record?
Its IC50 is over 50 µM.

And the inhibition at 0.05 µM (CYP1A2; human, microsomes)?
The inhibition at 0.05 µM was 0%.

And the inhibition at 0.15 µM (CYP1A2; human, microsomes)?
Its inhibition at 0.15 µM is 0%.

And the inhibition at 0.5 µM (CYP1A2; human, microsomes)?
The inhibition at 0.5 µM was 2.2%.

What about the inhibition at 1.5 µM (CYP1A2; human, microsomes) of the same compound?
The inhibition at 1.5 µM was 4.2%.

What about the inhibition at 5 µM (CYP1A2; human, microsomes) of the same compound?
The inhibition at 5 µM was 6.6%.

And the inhibition at 15 µM (CYP1A2; human, microsomes)?
The inhibition at 15 µM was 20.8%.

And the inhibition at 50 µM (CYP1A2; human, microsomes)?
Its inhibition at 50 µM is 41.8%.

What about the Cmax ([1]; CD-1, mouse, blood, oral, dosage 5 mg/kg, read-out: Cmax in mice) of the same compound?
Its Cmax is 200 to 500 nM.

And the concentration at 0.5 h [1, 5]?
The concentration at 0.5 h was 123 ± 30.2 ng/mL.

And the concentration at 1 h [1, 5]?
Its concentration at 1 h is 183 ± 19.1 ng/mL.

What about the concentration at 2 h [1, 5] of the same compound?
The concentration at 2 h was 211 ± 83 ng/mL.

And the concentration at 4 h [1, 5]?
The concentration at 4 h was 145 ± 40.9 ng/mL.

What about the concentration at 8 h ([1]; CD-1, mouse, plasma, oral, gavage 5 mg/kg, 8.00 h, read-out: Plasma drug concentration) of the same compound?
Its concentration at 8 h is 8.03 ± 3.71 ng/mL.

And the AUC(0-inf) [1, 6]?
Its AUC(0-inf) is 858 ± 185 ng·h/mL.

What about the AUC(0-t) [1, 6] of the same compound?
Its AUC(0-t) is 844 ± 181 ng·h/mL.

What about the Tmax [1, 6] of the same compound?
Its Tmax is 1.33 ± 0.577 h.

What about the half-life [1, 6] of the same compound?
Its half-life is 1.37 ± 0.317 h.

What about the MRT inf ([1]; CD-1, mouse, plasma, po, gavage 5 mg/kg, read-out: MRT0-inf) of the same compound?
Its MRT inf is 3 ± 0.111 h.

What about the MRT last [1, 6] of the same compound?
Its MRT last is 2.87 ± 0.0589 h.

What about the AUC(0-inf) [1, 7] of the same compound?
Its AUC(0-inf) is 567 ± 56.1 ng·h/mL.

What about the AUC(0-t) [1, 7] of the same compound?
The AUC(0-t) was 555 ± 54.7 ng·h/mL.

What about the clearance [1, 7] of the same compound?
Its clearance is 59.1 ± 5.63 mL/min/kg.

And the concentration at 0.25 h [1, 8]?
Its concentration at 0.25 h is 529 ± 93.4 ng/mL.

What about the concentration at 0.5 h [1, 8] of the same compound?
The concentration at 0.5 h was 344 ± 32.7 ng/mL.

What about the concentration at 1 h [1, 8] of the same compound?
Its concentration at 1 h is 161 ± 21.2 ng/mL.

And the concentration at 2 h [1, 8]?
The concentration at 2 h was 47.5 ± 13.6 ng/mL.

And the concentration at 4 h [1, 8]?
Its concentration at 4 h is 11.9 ± 2.24 ng/mL.

What about the MRT ([1]; CD-1, mouse, plasma, intravenous injection 2 mg/kg, read-out: MRT0-int) of the same compound?
Its MRT is 0.953 ± 0.123 h.

What about the MRT last [1, 7] of the same compound?
Its MRT last is 0.836 ± 0.0919 h.

What about the Vd ([1]; CD-1, mouse, plasma, intravenous injection 2 mg/kg, read-out: Vdss) of the same compound?
The Vd was 3.41 ± 0.745 L/kg.

And the “Plasma drug concentration (ng/ml)” value ([1]; gavage 5 mg/kg, 12.00 h)?
Its value is “BQL”.

What about the “Plasma drug concentration (ng/ml)” value ([1]; gavage 5 mg/kg, 24.00 h) of the same compound?
The value was “BQL”.

What about the “Plasma drug concentration (ng/ml)” value ([1]; intravenous injection 2 mg/kg, 8.00 h) of the same compound?
Its value is “BQL”.

And the “Plasma drug concentration (ng/ml)” value ([1]; intravenous injection 2 mg/kg, 12.00 h)?
Its value is “BQL”.

And the “Plasma drug concentration (ng/ml)” value ([1]; intravenous injection 2 mg/kg, 24.00 h)?
Its value is “BQL”.

What about the bioavailability ([1]; mouse, plasma, oral, gavage 5 mg/kg versus intravenous 2 mg/kg, CD-1 mice) of the same compound?
The bioavailability was 60.5%.

What about the concentration at 0.25 h ([1]; mouse, plasma, oral, gavage 5 mg/kg, CD-1 mice, read-out: Plasma drug concentration) of the same compound?
The concentration at 0.25 h was 48 ± 27.9 ng/mL.

What about the Cmax ([1]; mouse, plasma, po, gavage 5 mg/kg, CD-1 mice, read-out: Cmax) of the same compound?
Its Cmax is 223 ± 68.1 ng/mL.

What about the half-life ([1]; mouse, plasma, intravenous injection 2 mg/kg, CD-1 mice) of the same compound?
Its half-life is 1.09 ± 0.623 h.

And the concentration at 0.5 min ([1]; mouse, plasma, intravenous injection 2 mg/kg, CD-1 mice, 0.5 min, read-out: Plasma drug concentration)?
Its concentration at 0.5 min is 759 ± 133 ng/mL.

What about the IC50 [2] of the same compound?
Its IC50 is over 100 µM.

And the “Selectivity (DPP8 column)” value ([2]; DPP8 versus DPP4)?
The value was over 1250000.

What about the “inhibition effect to DPP8” value ([2]; in words) of the same compound?
Its value is “no inhibition effect”.

What about the IC50 [3] of the same compound?
Its IC50 is over 100 µM.

What about the “Selectivity (DPP9 column)” value ([3]; DPP9 versus DPP4) of the same compound?
Its value is over 1250000.

What about the “inhibition effect to DPP9” value ([3]; in words) of the same compound?
The value was “no inhibition effect”.

And the “Blood glucose concentration 0 min” value (normal mice (C57BL/6J); normal mice C57BL/6J, drug at -60 min (0.6 mg/ml, 5 ml/kg), 5 g/kg glucose at 0 min)?
The value was 8.88* mmol/L.

What about the hypoglycemic effect (normal mice (C57BL/6J); normal mice, in words) of the same compound?
Its hypoglycemic effect is “good hypoglycemic effect”.

What about the “Blood glucose concentration 15 min” value (normal mice (C57BL/6J); normal mice, 15 min after glucose) of the same compound?
Its value is 14.6*** mmol/L.

What about the “Blood glucose concentration 30 min” value (normal mice (C57BL/6J); normal mice, 30 min after glucose) of the same compound?
Its value is 11.0*** mmol/L.

What about the “Blood glucose concentration 45 min” value (normal mice (C57BL/6J); normal mice, 45 min after glucose) of the same compound?
The value was 9.23*** mmol/L.

What about the “Blood glucose concentration 60 min” value (normal mice (C57BL/6J); normal mice, 60 min after glucose) of the same compound?
Its value is 9.82*** mmol/L.

And the “Blood glucose concentration 120 min” value (normal mice (C57BL/6J); normal mice, 120 min after glucose)?
Its value is 7.58 mmol/L.

What about the AUC0-120 min (normal mice (C57BL/6J); normal mice, blood glucose AUC) of the same compound?
Its AUC0-120 min is 1185***.

What about the “Blood glucose concentration 0 min” value ([4]; obese mice B6.Cg-Lepob/JNju, drug at -60 min (0.6 mg/ml, 5 ml/kg), 2 g/kg glucose at 0 min) of the same compound?
Its value is 10.90 mmol/L.

What about the hypoglycemic effect ([4]; obese mice, in words) of the same compound?
The hypoglycemic effect was “good hypoglycemic effect”.

What about the “Blood glucose concentration 15 min” value ([4]; obese mice, 15 min after glucose) of the same compound?
The value was 32.88 mmol/L.

What about the “Blood glucose concentration 30 min” value ([4]; obese mice, 30 min after glucose) of the same compound?
The value was 25.93 mmol/L.

What about the “Blood glucose concentration 45 min” value ([4]; obese mice, 45 min after glucose) of the same compound?
The value was 17.03** mmol/L.

And the “Blood glucose concentration 60 min” value ([4]; obese mice, 60 min after glucose)?
The value was 13.88** mmol/L.

What about the “Blood glucose concentration 120 min” value ([4]; obese mice, 120 min after glucose) of the same compound?
Its value is 9.53* mmol/L.

What about the AUC0-120 min ([4]; obese mice, blood glucose AUC) of the same compound?
Its AUC0-120 min is 2025*.

What about the “inhibition rate to hERG” value (hERG potassium channel; 1 μM concentration) of the same compound?
The value was 0%.

What about the IC50 (hERG potassium channel; manual patch clamp, CHO cells) of the same compound?
Its IC50 is 79.8 µM.

From patent US10358449B2, “Xanthine derivative” (priority 2015, dated 2019)
